Key:
[1] = Cell viability in MCF7 cells, compounds at 1 μM for 3 days; assay type: cell-based; conditions: human, 1 μM concentration, read-out: cellular viability
Procedure: We began our biological investigations by assaying the cytotoxicity of natural deoxyelephantopin (DEP) and its unnatural analogues in four different cancer cell lines (Fig. 5a, Supplementary Figs 6–8).
Supplementary figure 8: Cell viability measurements in MCF7 cells. All compounds were tested at 1 μM concentration for 3 days (values±SD are shown; n = 3).
Supplementary figure 9: Propidium iodide and DAPI staining of MCF7 cells treated with either DMSO, 10% ethanol (necrosis positive control) or 20 µM DEP for 8 h. Scale bar […]
Biological materials. All materials were purchased from Sigma Aldrich unless otherwise stated. DMEM/High glucose media, phosphate buffered saline (PBS), MEM Non-Essential Amino Acids, Penicillin-Streptomycin (Pen/Strep) and Trypsin-EDTA were obtained from Life Technologies. Protein concentration was determined using the Bradford assay (Bio-Rad).
Cell culture and preparation of lysates. […] Cells were lysed by sonication to form cell lysates and protein concentration was determined using the Bradford […]
’ cells/mL and HeLa: 1 ’ cells/mL) in a 96-well plate and allowed to attach overnight. […] Cells were imaged using a SpectraMax i3 plate reader equipped with a SpectraMax MiniMax imaging cytometer (Molecular Devices). […]
Caspase activity labeling for fluorescence cell imaging. […]

[2] = target: T1, Protein HGH1 homolog (HGH1) (Homo sapiens, UniProt Q9BTY7); assay: SILAC competitive profiling with probe 24c in MCF7 lysates: HGH1; assay type: binding; conditions: 1 h, then 10 µM 24c
T1 construct: 1,522 proteins were enriched from MCF7 cells by 10 μM probe 24c; endogenous in cells; host or cells: MCF7
Description: In our efforts to determine the direct molecular targets of deoxyelephantopin we first performed a gel-based competitive in situ proteomic profiling assay[41] […] While the greater conformational flexibility of probe 24c could potentially lead to more promiscuous target engagement relatively to deoxyelephantopin, it was favoured based on the fact that an alkyne moiety appended to the rigid scaffold of deoxyelephantopin may hinder some of its interactions. MCF7 cells were pretreated with various concentrations of deoxyelephantopin for 4 h, harvested, lysed and the lysates were treated with the fluorogenic probe 24c-Cy3 (10 μM; Supplementary Fig. 10). […] Furthermore, cells were pretreated with 20 μM concentration of deoxyelephantopin or 24c and the proteomic profiles were compared (Fig. 6b, Supplementary Fig. 11). Multiple bands were detected that were equally competed by both DEP and 24c, thus again confirming that 24c can be used as an acceptable clickable analogue of deoxyelephantopin in pulldown assays. Having established the optimal labelling conditions by SDS–PAGE, we next carried out a mass spectrometry-based competitive profiling assay[42] coupled with the method of stable isotope labelling of amino acids in culture (SILAC)[43]. […]
visualization were performed as described above. Images were quantified with ImageJ and kinetics values were calculated using GraphPad Prism (V6.03). […]

T1 sequence (Q9BTY7 whole entry): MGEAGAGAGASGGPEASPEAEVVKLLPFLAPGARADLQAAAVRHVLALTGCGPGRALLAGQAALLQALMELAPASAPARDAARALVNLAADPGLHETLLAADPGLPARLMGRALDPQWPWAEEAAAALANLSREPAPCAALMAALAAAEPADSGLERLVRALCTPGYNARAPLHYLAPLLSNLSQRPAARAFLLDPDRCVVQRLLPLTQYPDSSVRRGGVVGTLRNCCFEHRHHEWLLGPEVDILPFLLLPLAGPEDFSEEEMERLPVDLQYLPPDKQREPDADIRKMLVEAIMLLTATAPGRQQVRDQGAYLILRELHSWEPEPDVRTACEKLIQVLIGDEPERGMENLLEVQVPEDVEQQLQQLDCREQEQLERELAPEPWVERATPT

In the case of `C=C(C)C(=O)O[C@H]1CC2=C[C@@H](C/C(C)=C/[C@H]3OC(=O)C(=C)[C@H]13)OC2=O` [deoxyelephantopin], the viability at 3 days, 1 µM [1] is reported as less than 30% and the “SILAC ratio 20 µM Deoxyelephantopin/DMSO with 24c” value [2] is reported as 0.20.
